Results reported in patent US11161823B2, “Anticancer 1,3-dioxane-4,6-dione derivatives and method of combinatorial synthesis thereof” (National Guard Health Affairs, priority 2019, dated 2021).

Experiments:
[1] = test system: KAIMRC1 (Breast); assay: MTT cell proliferation assay, KAIMRC1; assay type: cell-based, human; conditions: Homo sapiens; MTT, 48 h treatment, medium with 10% FBS; read-out: IC50 μM KAIMRC1 (Breast)
From the text: The immortalized cell lines included in the testing panel of this disclosure are MCF7 (a breast cancer cell line), MCF10 (immortalized human breast epithelial cells), MDA-MB231 (an epithelial, human breast cancer cell line that was established from a pleural effusion of a patient with a metastatic mammary adenocarcinoma), KAIMRC1 (a naturally immortalized human breast carcinoma cell line), KAIMRC2 (a naturally immortalized breast cancer cell line). The primary cells available for lead toxicity assays are, without limitation: hepatocytes (supplied by Xenotech, Bioscience Lonza, Accegen, Biocompare, Gibco, Zen-Bio, Takarabio, AxolBio, Creative Bioarray), cardiomyocytes (supplied by Cellartis, Axolbio, Cedarlanelabs, EMD Millipore, Takara Bio, Neuromics, AcceGene), primary neurons (AcceGen, Cellapplications, Neuromics, Biocompare, AxolBio, BrainXcell), endothelial lining (Thermofisher, Accegen, Biocompare, Promocell, ATCC). Multicellular 3D organoids raised by differentiating iPSC (induced pluripotent stem cells) are provided by Sigma Aldrich (the iPSC cell lines, organoids), Tocris Bioscience, Thermofisher, Stemcell Technologies, Takara Bio, Emulatebio (Human organ chips), Prodolabs.
(§1) Cell Culture: The human breast cancer epithelial cell lines MDA-MB-231 (HTB-26™), MCF-7 (HTB-22™), colon cancer cell lines HCT 116 (CCL-247™) and […] (CCL-244™) were obtained from American Type Culture Collection (ATCC). Additionally, KAIMRC1 cell line was isolated and developed at KAIMRC from a breast cancer patient. All the cells were grown in advanced DMEM containing 10% fetal bovine serum (FBS), 50 units/mL penicillin, 50 ug/mL streptomycin (GIBCO), and 2 mM glutamine (GIBCO). The cells were cultured at 37° C. in a humidified 5% CO2 atmosphere for 24 hours before experimental procedure.
(§2) Cell Proliferation Assay (MTT): Cells were plated on flat-bottom 96-well plates at a density of 5×10^3 cells/well in 100 μL growth medium. Serial dilutions of the compounds, ranging from 100 nM-100 μM were tested on the cells in triplicates. Additional rows with only the compounds and only cells were added in order to account for the compounds and cells effect. Cells were incubated with compounds for 48 h at 37° C. with 5% CO2.
(§3) After 48 h treatment, the cell viability was determined using the MTT viability assay. Briefly, 5 μL of MTT reagent (5 mg/mL stock) per 95 μl cell culture medium was added to each well and incubated for 3 h at 37° C. with 5% CO2. After 3 h the supernatant was removed, and the MTT formazan crystals were dissolved in dimethyl sulfoxide (DMSO) by shaking the plate for 30 mins at RT. The absorbance was measured on Molecular Devices microplate absorbance reader at 560 nm. The percentage of viable cells was calculated as the ratio of the absorbance of the treated group divided by the absorbance of the control group multiplied by 100. The absorbance from the untreated control cells was set as 100% viable. IC50 values were calculated from dose-response curves generated using a polynomial dose-response approximation using Prism 8 software. The IC50 values (µM) obtained for the compounds of present invention on MDA-MD 231 (breast), MCF-7 (breast), KAIMRC1 (breast), HCT116 (colon) and HCT8 (colon) are summarized in Table 5 and 6.

[2] = test system: HCT 8 (Colon); assay: MTT cell proliferation assay, HCT 8; assay type: cell-based, human; conditions: Homo sapiens, HCT-8; MTT, 48 h treatment, medium with 10% FBS; read-out: IC50 μM HCT 8 (Colon)
Method: as §1, §2, §3

[3] = test system: MDA-MD 231 (breast), MCF-7 (breast), KAIMRC1 (breast), HCT116 (colon) and HCT8 (colon); assay: MTT assay, review of Tables 5 and 6 (whole cell line panel); assay type: cell-based, human; conditions: review of Tables 5 and 6, MTT IC50
Method: as §1, §2, §3
The presence of nitrogen in certain positions of quinoline and/or iso-quinoline ring is the structure-activity determinant, and the subsequent variations in the nitrogen positions and substituents in this ring produce stronger leads by the methods of combinatorial expansion disclosed herein.

[4] = test system: MCF-7 (Breast); assay: MTT cell proliferation assay, MCF-7; assay type: cell-based, human; conditions: Homo sapiens, MCF7; MTT, 48 h treatment, medium with 10% FBS; read-out: IC50 μM MCF-7 (Breast)
Method: as §1, §2, §3

[5] = test system: HL 60 (leukemia); assay: Cell Titre Glo luminescent cell viability assay, HL 60; assay type: cell-based; conditions: Homo sapiens, HL-60; Cell Titre Glo luminescence, normalized to DMSO controls
From the text: (§4) Another embodiment discloses Titer Glo Assay for the characterization of the synthesized compounds. The CellTiter-Glo® Luminescent Cell Viability Assay is a homogeneous method of determining the number of viable cells in culture based on quantitation of the ATP present, an indicator of metabolically active cells. The CellTiter-Glo® Assay is designed for use with multiwell formats, making it ideal for automated high-throughput screening (HTS), cell proliferation, and cytotoxicity assays. The homogeneous assay procedure involves adding the single reagent (CellTiter-Glo® Reagent) directly to cells cultured in serum-supplemented medium. Cell washing, removal of medium, and multiple pipetting steps are not required. The system detects as few as 15 cells/well in a 384-well format in 10 minutes after adding reagent and mixing.
as §1
(§5) Cell Titre Glo assay was performed on two Leukemia cell lines, HL 60 and ThP1 as per manufacturer's (Promega) recommendations. Briefly, plates were prepared as mentioned in cell culture section. 100 µL of Cell Titre Glo was added directly to the wells. After incubation for 30 minutes at room temperature, luminescence was measured using the Envision plate reader (Perkin Elmer). Luminescence readings were normalized to averaged DMSO controls and expressed as relative percentage. IC50 values were calculated from dose-response curves generated using a polynomial dose-response approximation using Prism 8 software.

[6] = test system: ThP1 (leukemia); assay: Cell Titre Glo luminescent cell viability assay, ThP1; assay type: cell-based; conditions: Homo sapiens, THP-1; Cell Titre Glo luminescence, normalized to DMSO controls
From the text: as §4, §1, §5

[7] = test system: MDA MB-231 cell line (Breast); assay: MTT cell proliferation assay, MDA MB-231; assay type: cell-based, human; conditions: Homo sapiens, MDA-MB-231; MTT, 48 h treatment, medium with 10% FBS; read-out: IC50 μM MDA MB-231 (Breast)
Method: as §1, §2, §3

[8] = test system: HCT116 (Colon); assay: MTT cell proliferation assay, HCT116; assay type: cell-based, human; conditions: Homo sapiens, HCT-116; MTT, 48 h treatment, medium with 10% FBS; read-out: IC50 μM HCT116 (Colon)
Method: as §1, §2, §3

SMILES	IC50 [1] [µM]	IC50 [2] [µM]	range of activity compared with Mitoxanthrone [3]	IC50 [4] [µM]	IC50 [5] [µM]	IC50 [6] [µM]	IC50 [7] [µM]	IC50 [8] [µM]
CCC1(C)OC(=O)C(=CC=Cc2ccnc3ccccc23)C(=O)O1 (stereo not shown) [Example 13, 2-ETHYL-2-METHYL-5-(3-QUINOLIN-4-YL-ALLYLIDENE)-[1,3]DIOXANE-4,6-DIONE]	14.4	19.8	range of activity that begins to overlap with that of Mitoxanthrone	9.15	1.04	0.88	11	6.38
CCC1(C)OC(=O)C(=CC=Cc2cncc3ccccc23)C(=O)O1 (stereo not shown) [Example 12, 2-ETHYL-5-(3-ISOQUINOLIN-4-YL-ALLYLIDENE)-2-METHYL-[1,3]DIOXANE-4,6-DIONE]	4.25	1.87	range of activity that begins to overlap with that of Mitoxanthrone	9.29	2.05	1.82	6.05	2.47
